Target: LRRK2 (leucine-rich repeat kinase 2) (Homo sapiens (Human), UniProt Q5S007)
Experiment: Inhibitory effect on LRRK2 in vitro (LANCE kinase assay)
Format: biochemical
Details: Table 1, class symbols; read-out: LRRK2 inhibition rate (IC50)
Method: The inhibitory effect of Compounds 1 to 62 on LRRK2 (leucine-rich repeat kinase 2) in vitro was measured. In the analysis of the results, IC50 values were calculated for a quantitative comparison of the in vitro activity.
After the compound was dissolved in 100% DMSO at 10 mM, it was serially diluted to the range of 1 μM to 10 μM using biochemical LRRK2 assay buffer (50 mM HEPES (4-(2-hydroxyethyl)-1-piperazineethanesulfonic acid) pH 7.5, 10 mM MgCl2, 1 mM EGTA (1,2-bis(o-aminophenoxy)ethane-N,N,N′,N′-tetraacetic acid), 2 mM DTT (dithiothreitol), and 0.01% TWEEN-20 (Aldrich)). Purified LRRK2 (CARNA BIOSCIENCES) was added to a black U-bottom 96-well microtiter plate containing 6 μl of the serially diluted compound, followed by incubation at room temperature for 30 minutes. For the kinase reaction, ATP and a substrate solution specific urea-polypeptide (ULIGHT™-poly TK, PerkinElimer) were added. The reaction was carried out at room temperature for 1 hour, and it was detected with an detection solution (brand name: LANCE™) containing EDTA. A LANCE detection solution containing europium-labeled antibody ([…] PT66) was added, followed by incubation at room temperature for 50 minutes, to terminate the kinase experiment. The phosphorylated substrate was detected by 665 nm emission measurement. IC50 values were calculated by a non-linear regression analysis using a Prism program (PRISM™ software) with reference to the absence of a kinase inhibitor.
As a comparative assay, a compound LRR2-IN-1, that known to be a reference compound for LRRK2 inhibitor, have also tested an inhibitory activity.

Chain of LRRK2 (leucine-rich repeat kinase 2) (Q5S007 whole entry): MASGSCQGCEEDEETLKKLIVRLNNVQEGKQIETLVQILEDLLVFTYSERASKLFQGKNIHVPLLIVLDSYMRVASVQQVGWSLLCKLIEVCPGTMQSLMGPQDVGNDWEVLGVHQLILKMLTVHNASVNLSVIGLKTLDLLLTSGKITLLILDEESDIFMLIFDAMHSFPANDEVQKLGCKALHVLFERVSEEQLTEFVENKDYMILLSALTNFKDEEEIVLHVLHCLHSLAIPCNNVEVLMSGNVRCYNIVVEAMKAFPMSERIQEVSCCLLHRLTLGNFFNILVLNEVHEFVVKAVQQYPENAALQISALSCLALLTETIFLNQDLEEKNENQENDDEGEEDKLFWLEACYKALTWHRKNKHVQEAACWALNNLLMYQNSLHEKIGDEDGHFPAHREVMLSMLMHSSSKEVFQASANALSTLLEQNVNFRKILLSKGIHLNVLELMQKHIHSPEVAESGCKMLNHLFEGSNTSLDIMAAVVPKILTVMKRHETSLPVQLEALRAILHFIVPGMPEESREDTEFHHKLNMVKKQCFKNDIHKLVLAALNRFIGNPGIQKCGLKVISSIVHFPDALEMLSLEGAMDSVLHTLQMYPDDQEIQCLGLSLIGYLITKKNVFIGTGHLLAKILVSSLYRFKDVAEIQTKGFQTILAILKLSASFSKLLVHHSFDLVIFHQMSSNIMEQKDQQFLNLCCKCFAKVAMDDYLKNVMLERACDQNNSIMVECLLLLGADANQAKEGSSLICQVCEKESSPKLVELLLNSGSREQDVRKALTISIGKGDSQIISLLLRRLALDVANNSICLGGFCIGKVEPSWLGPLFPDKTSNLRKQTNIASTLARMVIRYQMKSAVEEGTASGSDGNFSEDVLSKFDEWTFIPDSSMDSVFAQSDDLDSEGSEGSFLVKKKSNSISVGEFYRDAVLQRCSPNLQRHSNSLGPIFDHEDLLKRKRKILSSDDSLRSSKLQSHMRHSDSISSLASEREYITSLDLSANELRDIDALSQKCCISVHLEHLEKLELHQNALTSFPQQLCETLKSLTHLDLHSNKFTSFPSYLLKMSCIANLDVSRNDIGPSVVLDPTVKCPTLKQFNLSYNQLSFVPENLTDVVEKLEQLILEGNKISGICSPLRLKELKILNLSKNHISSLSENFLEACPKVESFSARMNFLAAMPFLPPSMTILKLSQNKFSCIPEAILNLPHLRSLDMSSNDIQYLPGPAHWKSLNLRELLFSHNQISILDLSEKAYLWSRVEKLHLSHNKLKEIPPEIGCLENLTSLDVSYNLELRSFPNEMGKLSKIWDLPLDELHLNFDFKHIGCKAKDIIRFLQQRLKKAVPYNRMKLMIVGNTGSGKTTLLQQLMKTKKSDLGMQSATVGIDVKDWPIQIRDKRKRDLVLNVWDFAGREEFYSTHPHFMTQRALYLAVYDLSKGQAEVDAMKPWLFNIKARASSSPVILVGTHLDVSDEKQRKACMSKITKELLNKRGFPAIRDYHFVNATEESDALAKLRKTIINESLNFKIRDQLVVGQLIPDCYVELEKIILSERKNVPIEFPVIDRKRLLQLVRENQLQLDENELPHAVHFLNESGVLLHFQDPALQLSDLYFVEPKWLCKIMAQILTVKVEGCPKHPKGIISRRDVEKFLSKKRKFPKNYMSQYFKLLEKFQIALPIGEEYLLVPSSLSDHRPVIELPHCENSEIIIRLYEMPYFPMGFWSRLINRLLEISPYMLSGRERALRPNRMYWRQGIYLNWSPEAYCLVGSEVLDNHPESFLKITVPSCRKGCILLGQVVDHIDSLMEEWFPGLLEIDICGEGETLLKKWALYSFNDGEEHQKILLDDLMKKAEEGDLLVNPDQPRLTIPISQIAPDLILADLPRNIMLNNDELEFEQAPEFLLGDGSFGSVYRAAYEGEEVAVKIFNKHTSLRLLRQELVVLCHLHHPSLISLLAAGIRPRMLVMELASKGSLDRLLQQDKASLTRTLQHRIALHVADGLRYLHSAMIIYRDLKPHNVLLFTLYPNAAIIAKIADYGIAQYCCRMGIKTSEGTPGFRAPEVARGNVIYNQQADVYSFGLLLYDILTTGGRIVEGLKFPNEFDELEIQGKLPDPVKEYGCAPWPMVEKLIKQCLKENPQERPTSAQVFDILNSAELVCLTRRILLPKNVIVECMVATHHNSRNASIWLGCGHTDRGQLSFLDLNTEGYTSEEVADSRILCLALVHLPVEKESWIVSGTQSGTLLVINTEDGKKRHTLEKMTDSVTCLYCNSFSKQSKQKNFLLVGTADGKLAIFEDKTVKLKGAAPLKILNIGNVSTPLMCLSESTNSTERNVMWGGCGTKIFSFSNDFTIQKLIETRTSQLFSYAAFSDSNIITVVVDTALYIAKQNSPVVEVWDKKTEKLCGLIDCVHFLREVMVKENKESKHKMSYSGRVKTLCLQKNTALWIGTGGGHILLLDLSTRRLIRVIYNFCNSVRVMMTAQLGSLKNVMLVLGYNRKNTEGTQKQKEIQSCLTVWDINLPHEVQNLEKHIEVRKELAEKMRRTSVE

IC50 | SMILES
100 to 1000 nM | Cn1ncc(Nc2ncc3c(C(F)(F)F)cn(C)c3n2)c1Cl [Compound 1, N-(5-chloro-1-methyl-1H-pyrazol-4-yl)-7-methyl-5-(trifluoromethyl)-7H-pyrrolo[2,3-d]pyrimidin-2-amine]
10 to 100 nM | COc1nn(C(C)C)cc1Nc1ncc2c(Cl)cn(C)c2n1 [Compound 2, 5-chloro-N-(1-isopropyl-3-methoxy-1H-pyrazol-4-yl)-7-methyl-7H-pyrrolo[2,3-d]pyrimidin-2-amine]
10 to 100 nM | CC(C)n1cc(Nc2ncc3c(Cl)cn(C)c3n2)c(Cl)n1 [Compound 3, 5-chloro-N-(3-chloro-1-isopropyl-1H-pyrazol-4-yl)-7-methyl-7H-pyrrolo[2,3-d]pyrimidin-2-amine]
100 to 1000 nM | Cn1cc(Cl)c2cnc(Nc3cn(C4CCOCC4)nc3C(F)(F)F)nc21 [Compound 4, 5-chloro-7-methyl-N-(1-(tetrahydro-2H-pyran-4-yl)-3-(trifluoromethyl)-1H-pyrazol-4-yl)-7H-pyrrolo[2,3-d]pyrimidin-2-amine]
10 to 100 nM | Cn1ncc(Nc2ncc3c(Cl)cn(C)c3n2)c1Cl [Compound 5, 5-chloro-N-(5-chloro-1-methyl-1H-pyrazol-4-yl)-7-methyl-7H-pyrrolo[2,3-d]pyrimidin-2-amine]
10 to 100 nM | CCn1cc(Cl)c2cnc(Nc3cnn(C)c3Cl)nc21 [Compound 6, 5-chloro-N-(5-chloro-1-methyl-1H-pyrazol-4-yl)-7-ethyl-7H-pyrrolo[2,3-d]pyrimidin-2-amine]
10 to 100 nM | CC(C)n1cc(Nc2ncc3c(Cl)cn(C(C)C)c3n2)c(Cl)n1 [Compound 7, 5-chloro-N-(3-chloro-1-isopropyl-1H-pyrazol-4-yl)-7-isopropyl-7H-pyrrolo[2,3-d]pyrimidin-2-amine]
10 to 100 nM | CCn1cc(Cl)c2cnc(Nc3cn(C(C)C)nc3Cl)nc21 [Compound 8, 5-chloro-N-(3-chloro-1-isopropyl-1H-pyrazol-4-yl)-7-ethyl-7H-pyrrolo[2,3-d]pyrimidin-2-amine]
100 to 1000 nM | CC(C)n1cc(Nc2ncc3c(Cl)cn(C)c3n2)c(C(F)(F)F)n1 [Compound 9, 5-chloro-N-(1-isopropyl-3-(trifluoromethyl)-1H-pyrazol-4-yl)-7-methyl-7H-pyrrolo[2,3-d]pyrimidin-2-amine]
100 to 1000 nM | COCCn1cc(Nc2ncc3c(Cl)cn(C)c3n2)c(C(F)(F)F)n1 [Compound 10, 5-chloro-N-(1-(2-methoxyethyl)-3-(trifluoromethyl)-1H-pyrazol-4-yl)-7-methyl-7H-pyrrolo[2,3-d]pyrimidin-2-amine]
1000 to 10000 nM | CCCCn1cc(Nc2ncc3c(Cl)cn(C)c3n2)c(C(F)(F)F)n1 [Compound 11, N-(1-butyl-3-(trifluoromethyl)-1H-pyrazol-4-yl)-5-chloro-7-methyl-7H-pyrrolo[2,3-d]pyrimidin-2-amine]
10 to 100 nM | CCn1cc(Cl)c2cnc(Nc3cn(CCOC)nc3Cl)nc21 [Compound 12, 5-chloro-N-(3-chloro-1-(2-methoxyethyl)-1H-pyrazol-4-yl)-7-ethyl-7H-pyrrolo[2,3-d]pyrimidin-2-amine]
10 to 100 nM | CCn1cc(Cl)c2cnc(Nc3cn(CC4CC4)nc3Cl)nc21 [Compound 13, 5-chloro-N-(3-chloro-1-(cyclopropylmethyl)-1H-pyrazol-4-yl)-7-ethyl-7H-pyrrolo[2,3-d]pyrimidin-2-amine]
10 to 100 nM | CCn1cc(Cl)c2cnc(Nc3cn(C4CC4)nc3Cl)nc21 [Compound 14, 5-chloro-N-(3-chloro-1-cyclopropyl-1H-pyrazol-4-yl)-7-ethyl-7H-pyrrolo[2,3-d]pyrimidin-2-amine]
10 to 100 nM | Clc1nn(C2CC2)cc1Nc1ncc2c(Cl)cn(C3CC3)c2n1 [Compound 15, 5-chloro-N-(3-chloro-1-cyclopropyl-1H-pyrazol-4-yl)-7-cyclopropyl-7H-pyrrolo[2,3-d]pyrimidin-2-amine]
10 to 100 nM | CCn1cc(Cl)c2cnc(Nc3cnn(C4COC4)c3Cl)nc21 [Compound 16, 5-chloro-N-(5-chloro-1-(oxetan-3-yl)-1H-pyrazol-4-yl)-7-ethyl-7H-pyrrolo[2,3-d]pyrimidin-2-amine]

IC50 | SMILES
10 to 100 nM | CCn1cc(Cl)c2cnc(Nc3cn(C4CCN(C)CC4)nc3Cl)nc21 [Compound 17, 5-chloro-N-(3-chloro-1-(1-methylpiperidin-4-yl)-1H-pyrazol-4-yl)-7-ethyl-7H-pyrrolo[2,3-d]pyrimidin-2-amine]
10 to 100 nM | CCn1cc(Cl)c2cnc(Nc3cn(C4CCOCC4)nc3Cl)nc21 [Compound 18, 5-chloro-N-(3-chloro-1-(tetrahydro-2H-pyran-4-yl)-1H-pyrazol-4-yl)-7-ethyl-7H-pyrrolo[2,3-d]pyrimidin-2-amine]
10 to 100 nM | CCn1cc(Cl)c2cnc(Nc3cn(C4CC(C)OC(C)C4)nc3Cl)nc21 (stereo not shown) [Compound 19, 5-chloro-N-(3-chloro-1-(2,6-dimethyltetrahydro-2H-pyran-4-yl)-1H-pyrazol-4-yl)-7-ethyl-7H-pyrrolo[2,3-d]pyrimidin-2-amine]
10 to 100 nM | CCN1CCC(n2cc(Nc3ncc4c(Cl)cn(CC)c4n3)c(Cl)n2)CC1 [Compound 20, 5-chloro-N-(3-chloro-1-(1-ethylpiperidin-4-yl)-1H-pyrazol-4-yl)-7-ethyl-7H-pyrrolo[2,3-d]pyrimidin-2-amine]
100 to 1000 nM | CCn1cc(Cl)c2cnc(Nc3cn(-c4ccc(F)cc4)nc3Cl)nc21 [Compound 21, 5-chloro-N-(3-chloro-1-(4-fluorophenyl)-1H-pyrazol-4-yl)-7-ethyl-7H-pyrrolo[2,3-d]pyrimidin-2-amine]
100 to 1000 nM | CCn1cc(Cl)c2cnc(Nc3cnn(-c4ccc(Cl)cc4)c3Cl)nc21 [Compound 22, 5-chloro-N-(5-chloro-1-(4-chlorophenyl)-1H-pyrazol-4-yl)-7-ethyl-7H-pyrrolo[2,3-d]pyrimidin-2-amine]
10 to 100 nM | CC(=O)N1CCC(n2ncc(Nc3ncc4c(Cl)cn(C)c4n3)c2Cl)CC1 [Compound 23, 1-(4-(5-chloro-4-(5-chloro-7-methyl-7H-pyrrolo[2,3-d]pyrimidin-2-ylamino)-1H-pyrazol-1-yl)piperidin-1-yl)ethanone]
10 to 100 nM | CCn1cc(Cl)c2cnc(Nc3cn(C4CCN(C(=O)C5CC5)CC4)nc3Cl)nc21 [Compound 24, (4-(3-chloro-4-(5-chloro-7-ethyl-7H-pyrrolo[2,3-d]pyrimidin-2-ylamino)-1H-pyrazol-1-yl)piperidin-1-yl)(cyclopropyl)methanone]
< 10 nM | CCn1cc(Cl)c2cnc(Nc3cn(C4CCN(S(C)(=O)=O)CC4)nc3Cl)nc21 [Compound 25, 5-chloro-N-(3-chloro-1-(1-(methylsulfonyl)piperidin-4-yl)-1H-pyrazol-4-yl)-7-ethyl-7H-pyrrolo[2,3-d]pyrimidin-2-amine]
10 to 100 nM | CCn1cc(Cl)c2cnc(Nc3cn(C4CCN(C(=O)C(C)C)CC4)nc3Cl)nc21 [Compound 26, 1-(4-(3-chloro-4-(5-chloro-7-ethyl-7H-pyrrolo[2,3-d]pyrimidin-2-ylamino)-1H-pyrazol-1-yl)piperidin-1-yl)-2-methylpropane-1-one]
10 to 100 nM | Cn1cc(Cl)c2cnc(Nc3cnn(C4CCN(C5COC5)CC4)c3Cl)nc21 [Compound 27, 5-chloro-N-(5-chloro-1-(1-(oxetan-3-yl)piperidin-4-yl)-1H-pyrazol-4-yl)-7-methyl-7H-pyrrolo[2,3-d]pyrimidin-2-amine]
< 10 nM | CCn1cc(Cl)c2cnc(Nc3cnn(C4CCN(C5COC5)CC4)c3Cl)nc21 [Compound 28, 5-chloro-N-(5-chloro-1-(1-(oxetan-3-yl)piperidin-4-yl)-1H-pyrazol-4-yl)-7-ethyl-7H-pyrrolo[2,3-d]pyrimidin-2-amine]
10 to 100 nM | Clc1cn(C2CC2)c2nc(Nc3cnn(C4CCN(C5COC5)CC4)c3Cl)ncc12 [Compound 29, 5-chloro-N-(5-chloro-1-(1-(oxetan-3-yl)piperidin-4-yl)-1H-pyrazol-4-yl)-7-cyclopropyl-7H-pyrrolo[2,3-d]pyrimidin-2-amine]
< 10 nM | CS(=O)(=O)N1CCC(n2cc(Nc3ncc4c(Cl)cn(C5CC5)c4n3)c(Cl)n2)CC1 [Compound 30, 5-chloro-N-(3-chloro-1-(1-(methylsulfonyl)piperidin-4-yl)-1H-pyrazol-4-yl)-7-cyclopropyl-7H-pyrrolo[2,3-d]pyrimidin-2-amine]
< 10 nM | CCn1cc(Cl)c2cnc(Nc3cn(C4CCN(C(=O)N5CCOCC5)CC4)nc3Cl)nc21 [Compound 31, (4-(3-chloro-4-(5-chloro-7-ethyl-7H-pyrrolo[2,3-d]pyrimidin-2-ylamino)-1H-pyrazol-1-yl)piperidin-1-yl)(morpholino)methanone]
< 10 nM | CCn1cc(Cl)c2cnc(Nc3cn(C4CCN(C(=O)N5CCN(C)CC5)CC4)nc3Cl)nc21 [Compound 32, (4-(3-chloro-4-(5-chloro-7-ethyl-7H-pyrrolo[2,3-d]pyrimidin-2-ylamino)-1H-pyrazol-1-yl)piperidin-1-yl)(4-methylpiperazin-1-yl)methanone]

Same assay, conditions: purified LRRK2, Table 6; read-out: IC50

IC50 | SMILES
6.67 nM | CCn1cc(Cl)c2cnc(Nc3cn(C4CCN(S(C)(=O)=O)CC4)nc3Cl)nc21 [Compound 25, 5-chloro-N-(3-chloro-1-(1-(methylsulfonyl)piperidin-4-yl)-1H-pyrazol-4-yl)-7-ethyl-7H-pyrrolo[2,3-d]pyrimidin-2-amine]
6.5 nM | CCn1cc(Cl)c2cnc(Nc3cnn(C4CCN(C5COC5)CC4)c3Cl)nc21 [Compound 28, 5-chloro-N-(5-chloro-1-(1-(oxetan-3-yl)piperidin-4-yl)-1H-pyrazol-4-yl)-7-ethyl-7H-pyrrolo[2,3-d]pyrimidin-2-amine]
2.02 nM | CS(=O)(=O)N1CCC(n2cc(Nc3ncc4c(Cl)cn(C5CC5)c4n3)c(Cl)n2)CC1 [Compound 30, 5-chloro-N-(3-chloro-1-(1-(methylsulfonyl)piperidin-4-yl)-1H-pyrazol-4-yl)-7-cyclopropyl-7H-pyrrolo[2,3-d]pyrimidin-2-amine]
4.66 nM | CCn1cc(Cl)c2cnc(Nc3cn(C4CCN(C(=O)N5CCOCC5)CC4)nc3Cl)nc21 [Compound 31, (4-(3-chloro-4-(5-chloro-7-ethyl-7H-pyrrolo[2,3-d]pyrimidin-2-ylamino)-1H-pyrazol-1-yl)piperidin-1-yl)(morpholino)methanone]
2.5 nM | CCn1cc(Cl)c2cnc(Nc3cn(C4CCN(C(=O)N5CCN(C)CC5)CC4)nc3Cl)nc21 [Compound 32, (4-(3-chloro-4-(5-chloro-7-ethyl-7H-pyrrolo[2,3-d]pyrimidin-2-ylamino)-1H-pyrazol-1-yl)piperidin-1-yl)(4-methylpiperazin-1-yl)methanone]
